Experimental data taken from patent publication US20190046486A1, “COMPOSITIONS AND METHODS FOR THE TREATMENT OF NEURONAL INJURY” (AXCELLA HEALTH INC., priority 2017, published 2019).

Experiments:
IL-6 = IL-6 levels in LPS-activated primary microglia cells treated with amino acid combinations; type: cell-based, mouse; details: for IL-6 Measurements, Mean: mouse microglia supernatant, 12 h after LPS 100 ng/ml, LIV 2.5 mM, NAC, ALCAR, CR 1 mM each, 6 replicates
Procedure: (§1) Pups were decapitated, brains removed from the skulls, cortices dissected and collected in Calcium and Magnesium free Hanks Balanced Salt Solution (CMF-HBSS) on ice. Cortices were chopped with a sterile razor blade in chop solution (CMF-HBSS) and digested in 2 ml digestion solution (0.25% trypsin in CMF-HBSS) in a 15 ml sterile plastic tube for 20 minutes at 37° C. in a water bath. After removing as much as possible of the digestion solution (approximately 1 ml), the digestion was stopped by adding 3 ml stop solution (0.01% DNaseI and 0.5% trypsin inhibitor in FCS). Cortices were triturated 10-15 times with a fire-polished Pasteur pipette and centrifuged at 300 g for 5 minutes. The pellet was resuspended in 1 ml nutrition medium (10% FCS, 1% Penicillin-Streptomycin, 2 mM L-glutamine in DMEM) per pup. Cells were seeded into poly-D-lysine pre-coated T75 flasks containing 14 ml nutrition medium (one pup per flask). Medium was changed every 3 to 4 days and cells were cultured at 37° C., 95% humidity and 5% CO2 for approximately 14 days before harvesting the microglia.
(§2) After approximately 14 days of cultivation microglia cells were harvested by shaking the T75 flasks at 200 rpm at 37° C. for 2 h. After visual inspection confirming that the microglia cells had detached, the supernatants containing the microglia were transferred to 50 ml tubes (supernatant from 1 flask into 1 tube) and centrifuged at 300 g for 10 minutes. The pelleted microglia cells were resuspended in 2 ml of nutrition medium. Microglia cells were seeded into uncoated plates 1×10^5 cells/well (96 well plate) and incubated for 2 h at 37° C. Then the plates were rocked at 100 rpm for 5 minutes to detach the oligodendrocytes. The medium containing the oligodendrocytes was exchanged with fresh medium and microglia cells were incubated for 2 days at 37° C. before LPS treatment. 24 h before LPS stimulation single amino acids and combinations were administered. Next, 1 h before LPS stimulation, medium was changed to treatment medium (DMEM, 5% FBS, 2 mM L-glutamine) containing amino acids or combinations. Cells were maintained in treatment medium for the remaining culture period. One hour after changing cells to treatment medium, cells were stimulated with LPS (100 ng/ml) for 12 h in total. Cells treated with vehicle, LPS alone served as controls.
(§3) After 12 h of LPS stimulation, cell supernatants were collected and cytokines IL-6 and TNFα were measured. […]
(§4) Levels of TNFα an IL-6 were measured in supernatants of primary microglia cells collected 12 h after LPS stimulation. Cytokines were measured by an immunosorbent assay (U-PLEX Custom Mouse Cytokine, Mesoscale Discovery) according to the instructions of the manufacturer and evaluated in comparison to calibration curves provided in the kit. […]

TNFα = TNFα levels in LPS-activated primary microglia cells treated with amino acid combinations; type: cell-based, mouse; details: for TNFα Measurements, Mean: mouse microglia supernatant, 12 h after LPS 100 ng/ml, LIV 2.5 mM, NAC, ALCAR, CR 1 mM each, 6 replicates
Procedure: as §1, §2, §3, §4

[1] = mouse microglia activated with LPS

| SMILES | IL-6 Measurements, Mean (IL-6) [pg per ml] | TNFα Measurements, Mean (TNFα) [pg per ml] | IL-6 protein level compared to vehicle treated with LPS stimulus (IL-6; [1]) | TNFα protein level compared to vehicle treated with LPS stimulus (TNFα; [1]) |
| --- | --- | --- | --- | --- |
| CC(=O)O[C@H](CC(=O)[O-])C[N+](C)(C)C [ALCAR, acetyl-1-carnitine] | 59600 | 21897 |  |  |
| CN(CC(=O)O)C(=N)N [CR, creatine] | 56492 | 17884 |  |  |
| CC(=O)N[C@@H](CS)C(=O)O [NAC, N-acetylcysteine] | 46749 | 14814 | reduced | reduced |
